“And” between values parts separate entries of the source, which are not always exact repeats. Identical values can stand only once.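 Protocol summary: plate cells (96-well), add compound at 5 concentrations, incubate 48 h, interpolate endpoints linearly. GI50 is the concentration that inhibits growth by half. The concentration for full growth arrest is given as TGI.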
Tests used:
Test in all cases: growth of human tumour cells (NCI), 48 h
[1] = system: RXF 393 renal
[2] = system: MCF7 breast
[3] = system: PC-3 prostate
[4] = system: SNB-19 CNS
[5] = system: OVCAR-3 ovarian
[6] = system: NCI-H522 lung
[7] = system: MOLT-4 leukemia
[8] = system: NCI-H460 lung
[9] = system: SF-295 CNS
[10] = system: HCC-2998 colon

Row | Structure (SMILES) | GI50 [1] | TGI [1] | GI50 [2] | TGI [2] | GI50 [3] | TGI [3] | GI50 [4] | TGI [4] | GI50 [5] | TGI [5] | GI50 [6] | TGI [6] | GI50 [7] | TGI [7] | GI50 [8] | TGI [8] | GI50 [9] | TGI [9] | GI50 [10] | TGI [10]
1 | COc1cc(OC)c(/C=C/C(=O)c2ccc(Nc3ncnc4ccccc34)cc2)c(OC)c1 | 0.488 µM | 1.95 µM | 0.449 µM | 2.59 µM | 0.707 µM | 8.33 µM | 1.23 µM | 14.5 µM | 0.365 µM | 1.43 µM | 0.296 µM | 1.44 µM | 0.898 µM | > 100 µM | 0.394 µM | 2.01 µM | 0.353 µM | 1.92 µM | 1.94 µM | 14.2 µM
2 | COC1CC(C)C(OC)c2cc(O)cc(c2O)NC(=O)/C(C)=C/C=C\C(C)C(OC(N)=O)/C(C)=C\C(C)C1OC (stereo not drawn) | 1.33 µM | 9.01 µM and 8.63 µM | 0.0482 µM | 10.5 µM | 0.201 µM and 0.44 µM | 16.4 µM and 8.51 µM | 0.649 µM | 23.7 µM and 72.3 µM | 0.938 µM and 0.552 µM and 0.186 µM | 5.31 µM and 7.4 µM | 0.0575 µM and 0.0989 µM | 0.683 µM and 0.913 µM | 0.0437 µM and 0.0746 µM | – | 0.348 µM and 0.42 µM | 18.4 µM and 8.56 µM | 0.665 µM | 9.09 µM and 8.02 µM | 0.318 µM | 9.78 µM and 11.3 µM
3 | COc1ccc(-c2nsc3c2NC(=O)CC3c2ccc3c(c2)OCCO3)cc1 (stereo not drawn) | 0.629 µM | – | 0.371 µM | > 100 µM | 0.528 µM | > 100 µM | 0.924 µM | > 100 µM | 0.327 µM | 1.15 µM | 0.551 µM | > 100 µM | 0.622 µM | > 100 µM | 0.396 µM | > 46 µM | 0.434 µM | > 33.2 µM | 1.38 µM | 19.5 µM
4 | COc1cccc(-n2ncc3c(N/N=C/c4ccc(C)cc4)ncnc32)c1 | > 25 µM | > 25 µM | 7.2 µM | > 25 µM | > 25 µM | > 25 µM | > 25 µM | > 25 µM | > 25 µM | > 25 µM | > 25 µM | > 25 µM | > 25 µM | > 25 µM | > 25 µM | > 25 µM | > 25 µM | > 25 µM | > 25 µM | > 25 µM
5 | c1ccc2cc(Cn3cc[n+](Cc4ccc5ccccc5c4)c3)ccc2c1 | 1.25 µM | 4.72 µM | 1.87 µM | 10.5 µM | 0.535 µM | 5.6 µM | 0.979 µM | 6.97 µM | 0.675 µM | 2.18 µM | 0.393 µM | 3.11 µM | 1.24 µM | 8.38 µM | 1.27 µM | 10.4 µM | 3.65 µM | 19.6 µM | 1.05 µM | 4.38 µM
6 | CCNc1cc2oc(=O)cc(C(F)(F)F)c2cc1C | – | > 100 µM | – | > 100 µM | – | > 100 µM | – | > 100 µM | – | > 100 µM | – | > 100 µM | – | > 100 µM | – | > 100 µM | – | > 100 µM | – | > 100 µM
7 | Cc1ccc(-c2c(C#N)[n+](=O)c3cc(F)c(F)cc3n2[O-])cc1 | 2.63 µM | 8.91 µM | 5.04 µM | 38.1 µM | 1.43 µM | 3.35 µM | 18.6 µM | 34.9 µM | 1.77 µM | 3.61 µM | 3.43 µM | 76.9 µM | 0.851 µM | 2.71 µM | 12.2 µM | 30.3 µM | 2.01 µM | 5.27 µM | 10.3 µM | 23.5 µM
8 | COC1(OC)C2(Cl)C(Cl)=C(Cl)C1(Cl)C1c3ccc(C(C)=O)c4cccc(c34)C12 (stereo not drawn) | – | > 100 µM | – | > 100 µM | – | > 100 µM | – | > 100 µM | – | > 100 µM | – | > 70.2 µM | – | > 77.6 µM | – | > 80.5 µM | – | > 100 µM | – | 52.7 µM
9 | CC(CN1CC(=O)NC(=O)C1)N1CC(=O)NC(=O)C1 (stereo not drawn) | – | > 750 µM | – | > 750 µM | – | > 750 µM | – | > 750 µM | – | 701 µM | – | > 724 µM | – | > 750 µM | – | > 622 µM | – | > 750 µM | – | > 750 µM
10 | COc1ccc(C(C#N)=C2C=CC(=NO)C=C2)cc1 | 7.8 µM | 20.5 µM | 2.88 µM | 13.8 µM | 3.74 µM | 17.1 µM | 16.1 µM | 32.1 µM | 4.31 µM | 13.4 µM | 1.23 µM | 3.41 µM | 4.58 µM | > 100 µM | 3.17 µM | 12 µM | 4.8 µM | 17.1 µM | 16.1 µM | 29.7 µM
11 | CCCCCCCN(CCCCCCC)C(=N)c1ccnc2ccccc12 | 1.44 µM | 2.99 µM | 1.71 µM | 3.32 µM | 1.39 µM | 2.96 µM | 1.79 µM | 3.68 µM | 1.45 µM | 2.84 µM | 1.65 µM | 3.41 µM | 1.7 µM | 4.4 µM | 1.69 µM | 3.27 µM | 1.69 µM | 3.45 µM | 1.42 µM | 2.77 µM
12 | Cc1c(N)nc([C@H](CC(N)=O)NC[C@H](N)C(N)=O)nc1C(=O)N[C@H](C(=O)N[C@H](C)[C@@H](O)CC(=O)N[C@H](C(=O)NC(O[C@@H]1O[C@@H](C)[C@@H](N)[C@@H](O)[C@H]1O)C(O)c1nc(-c2nc(C(=O)NCCCCN)cs2)cs1)[C@@H](C)O)[C@@H](O[C@@H]1O[C@@H](CO)[C@@H](O)[C@H](O)[C@@H]1O[C@H]1O[C@H](CO)[C@@H](O)[C@H](OC(N)=O)[C@@H]1O)c1c[nH]cn1 (stereo partly drawn) | – | > 50 µM | – | > 50 µM | – | > 50 µM | – | > 50 µM | – | > 50 µM | – | > 50 µM | – | > 50 µM | – | > 50 µM | – | > 50 µM | – | > 50 µM

From PubChem BioAssay (NCI)
